# Source: patent publication US7183267B2, “β-lactamase inhibitors and methods of use thereof” (priority 2003, dated 2007)
# Assays:
# TEM-1 β-lactamase [1] = target: T1, TEM-1 β-lactamase (Escherichia coli, UniProt P62593); test: TEM-1 β-lactamase inhibition assay (nitrocefin hydrolysis, 486 nm); format: biochemical
# Experimental: The inhibition of TEM-1 β-lactamase was determined spectrophotometrically. B-lactamase activity was followed by measuring the hydrolysis of nitrocefin, [3-(2,4-dinitrostyryl)-(6R, 7R)-7-(2-thienylacetamido)-ceph-3-em-4-carboxylic acid, E-isomer], (Calbiochem, San Diego, Calif., USA) at 486 nm. Inhibition assays were performed at 25° C. in 50 mM sodium phosphate, 5% DMSO, pH 7.0. […] Inhibitor was added to the enzyme and incubated for ten minutes before the addition of substrate. Inhibition constants (Ki) for the inhibitors are obtained at the desired temperature and solvent conditions by measuring the rate of substrate hydrolysis at increasing amounts of inhibitors.
# (§1) The competitive inhibition of β-lactamase was determined spectrophotometrically using a Varian (Walnut Creek, Calif.) Cary 100 UV-Visible spectrophotometer. β-lactamase activity was followed by measuring the hydrolysis of nitrocefin, [3-(2,4-dinitrostyryl)-(6R, 7R)-7-(2-thienylacetamido)-ceph-3-em-4-carboxylic acid, E-isomer], (Calbiochem, San Diego, Calif.) at 486 nm. Inhibition assays were performed at 25° C. in 50 mM sodium phosphate, 5% DMSO, pH 7.0. […] Penicillin G (Sigma, St. Louis, Mo.) was also used as a substrate to determine KM and kcat.
# (§2) Inhibitor was added to protein and incubated for ten minutes before the addition of substrate. Inhibition constants were determined by measuring the loss of P-lactamase activity with increasing inhibitor concentrations and fitting the data to standard equations for competitive inhibition.
# (§3) These methods can also be used to express and assay recombinant TEM-1 variant of β-lactamase.
# AmpC β-lactamase [2] = target: T2, AmpC β-lactamase (Escherichia coli, UniProt P00811); conditions: binding to AmpC; ITC
# T2 construct: made in house; host or cells: E. coli BL21 (DE3)
# T2 sequence (P00811 20-377): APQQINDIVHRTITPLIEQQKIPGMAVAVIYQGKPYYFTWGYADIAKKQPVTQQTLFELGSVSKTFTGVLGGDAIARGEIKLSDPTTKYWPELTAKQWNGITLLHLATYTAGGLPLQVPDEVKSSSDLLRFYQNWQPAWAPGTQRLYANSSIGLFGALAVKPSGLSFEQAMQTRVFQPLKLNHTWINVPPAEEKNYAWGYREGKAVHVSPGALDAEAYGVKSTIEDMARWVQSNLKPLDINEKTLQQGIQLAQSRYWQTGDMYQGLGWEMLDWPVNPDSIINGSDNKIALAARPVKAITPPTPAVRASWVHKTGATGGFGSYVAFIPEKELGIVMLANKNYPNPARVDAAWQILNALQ
# Experimental: (§4) Isothermal titration calorimetry was performed on a high-precision VP-ITC titration calorimeter (Microcal Inc., Northampton, Mass.). β-Lactamase solutions were titrated with inhibitors in 50 mM sodium phosphate, 2% DMSO, pH 7.0, with β-lactamase concentrations ranging from 15 to 25 μM and inhibitor concentrations ranging from 300 to 1000 μM. The heat evolved from each injection was obtained by integrating the calorimetric signal. Heat of binding was obtained as the difference between the heat of reaction and the heat of inhibitor dilution. Data were analyzed using Origin 7.0 (OriginLab Corporation, Northampton, Mass.).
# Isothermal titration calorimetry was undertaken to determine the thermodynamic characteristics of binding to AmpC β-lactamase.
# AmpC β-lactamase [3] = target: T2, AmpC β-lactamase; test: AmpC β-lactamase competitive inhibition assay (nitrocefin hydrolysis); format: biochemical
# Experimental: The gene for AmpC β-lactamase (accession number P00811) was obtained from Escherichia coli K12 strain W3110 (American Type Culture Collection, Rockville Md.). E. coli was grown and plasmid (F-lacIq lacPL8 ampC::lambdacI+) was isolated via Qiagen (Valencia, Calif.) mini prep. The gene for AmpC was amplified in two pieces via polymerase chain reaction, ligated and purified by agarose gel electrophoresis. The ligated gene was inserted into a pET200 vector via a TOPO reaction (Invitrogen, Carlsbad, Calif.).
# BL21 (DE3) (Invitrogen) cells were transformed by heat-shock with the prepared plasmid. These cells were grown to an OD600 of 0.8 at 37° C. Isopropylthiogalactoside (IPTG) was added to 1 mM, incubation temperature decreased to 25° C. and the cells were grown for an additional 18 hours. After 18 hours, the E. coli was pelleted by centrifugation, and discarded. The growth media was concentrated and dialyzed versus 100 mM Tris, pH 7.0. This solution was run through an equilibrated Q-resin column, and washed with excess 100 mM Tris, pH 7.0.
# as §1, §2
# TEM-1 β-lactamase [4] = target: T1, TEM-1 β-lactamase; test: Isothermal titration calorimetry, binding to TEM-1 β-lactamase (Example 17); conditions: ITC
# Experimental: as §4, §3
# Also shown are the results obtained for β-lactamase variant TEM-1.
# [5] = Ki, 25° C., 50 mM sodium phosphate, 5% DMSO, pH 7.0, enzyme 5 nM, nitrocefin 167 μM
# [6] = Ki from Lineweaver-Burke Analysis, values in parenthesis, Lineweaver-Burke analysis
# T1 sequence (P62593 24-286 limits assumed): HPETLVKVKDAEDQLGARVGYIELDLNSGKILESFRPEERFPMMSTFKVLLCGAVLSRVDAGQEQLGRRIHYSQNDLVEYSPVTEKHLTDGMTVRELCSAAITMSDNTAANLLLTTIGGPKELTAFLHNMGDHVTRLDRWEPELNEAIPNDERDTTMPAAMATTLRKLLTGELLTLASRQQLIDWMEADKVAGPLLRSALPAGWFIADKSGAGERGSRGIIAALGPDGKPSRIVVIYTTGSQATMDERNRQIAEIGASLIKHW
smiles,measurement,setting,value
"Cc1cccc(OC(=O)c2cc(B(O)O)cc([N+](=O)[O-])c2)c1 [(1m), 3-(3-Methylphenoxycarbonyl)-5-nitrophenylboronic acid]",Ki,TEM-1 β-lactamase [1]; [5],114 ± 12 µM
"O=C(Oc1ccncc1)c1cc(B(O)O)cc([N+](=O)[O-])c1 [(1r), 3-(4-pyridyloxycarbonyl)-5-nitro-phenylboronic acid]",Ki,TEM-1 β-lactamase [1]; [5],138 ± 2.7 µM
"O=C(Oc1ccccc1Br)c1cc(B(O)O)cc([N+](=O)[O-])c1 [(1u), 3-(2-Bromophenoxycarbonyl)-5-nitro-phenylboronic acid]",Ki,TEM-1 β-lactamase [1]; [6],1.68 µM
same,Ki,TEM-1 β-lactamase [1]; [5],25 ± 2.5 µM
"O=C(Oc1c(Cl)cccc1[N+](=O)[O-])c1ccc(B(O)O)cc1F [(8a), 4-(2-Chloro-6-nitrophenoxycarbonyl)-3-fluorophenylboronic acid]",Ki,TEM-1 β-lactamase [1]; [5],43 ± 1.6 µM
same,ΔG,AmpC β-lactamase [2],-8.19 kcal/mol
same,ΔH,AmpC β-lactamase [2],-8.486 kcal/mol
same,−TΔS,AmpC β-lactamase [2],0.296 kcal/mol
same,Ki,AmpC β-lactamase [3],0.913 µM
"CCOC(=O)c1ccc(OC(=O)c2cc(B(O)O)cc([N+](=O)[O-])c2)cc1 [Compound (1e), 3-(4-Ethoxycarbonylphenoxycarbonyl)-5-nitrophenylboronic acid]",Ki,TEM-1 β-lactamase [1]; [5],> 1000 µM
"Cc1ccccc1OC(=O)c1cc(B(O)O)cc([N+](=O)[O-])c1 [Compound (1k), 3-(2-Methylphenoxycarbonyl)-5-nitro-phenylboronic acid]",Ki,TEM-1 β-lactamase [1]; [5],130 ± 18 µM
"COc1ccccc1OC(=O)c1cc(B(O)O)cc([N+](=O)[O-])c1 [Compound (1l), 3-(2-Methoxylphenoxycarbonyl)-5-nitrophenylboronic acid]",Ki,TEM-1 β-lactamase [1]; [5],116 ± 7 µM
"O=C(Oc1c(Cl)cccc1Cl)c1cc(B(O)O)cc([N+](=O)[O-])c1 [Compound (1n), 3-(2,6-Dichlorophenoxycarbonyl)-5-nitrophenylboronic acid]",ΔG,TEM-1 β-lactamase [4],-5.608 kcal/mol
same,ΔH,TEM-1 β-lactamase [4],-1.173 kcal/mol
same,−TΔS,TEM-1 β-lactamase [4],-4.435 kcal/mol
same,Ki,TEM-1 β-lactamase [1]; [6],0.62 µM
same,Ki,TEM-1 β-lactamase [1]; [5],8.8 ± 0.5 µM
same,Ki,"TEM-1 β-lactamase [1]; Ki, TEM-1 β-lactamase",8.8 µM
"O=C(Oc1ccccc1F)c1cc(B(O)O)cc([N+](=O)[O-])c1 [Compound (1o), 3-(2-Fluorophenoxycarbonyl)-5-nitrophenylboronic acid]",Ki,TEM-1 β-lactamase [1]; [5],49.3 ± 4.6 µM
"O=C(Oc1c(F)cccc1F)c1cc(B(O)O)cc([N+](=O)[O-])c1 [Compound (1p), 3-(2,6-Difluorophenoxycarbonyl)-5-nitrophenylboronic acid]",ΔG,TEM-1 β-lactamase [4],-5.916 kcal/mol
same,ΔH,TEM-1 β-lactamase [4],-6.715 kcal/mol
same,−TΔS,TEM-1 β-lactamase [4],0.799 kcal/mol
same,Ki,TEM-1 β-lactamase [1]; [5],19.8 ± 1.3 µM
same,Ki,"TEM-1 β-lactamase [1]; Ki, TEM-1 β-lactamase",19.8 µM
"O=C(Oc1ccc(F)cc1)c1cc(B(O)O)cc([N+](=O)[O-])c1 [Compound (1q), 3-(4-Fluorophenoxycarbonyl)-5-nitrophenylboronic acid]",Ki,TEM-1 β-lactamase [1]; [5],100 ± 8 µM
"O=C(Oc1cccnc1Cl)c1cc(B(O)O)cc([N+](=O)[O-])c1 [Compound (1s), 3-(2-Chloro-3-pyridyloxycarbonyl)-5-nitrophenylboronic acid]",Ki,TEM-1 β-lactamase [1]; [5],42.3 ± 2.4 µM
"O=C(Oc1ccccc1)c1cc(B(O)O)cc([N+](=O)[O-])c1 [Compound (1t), 3-Phenoxycarbonyl-5-nitrophenylboronic acid]",Ki,TEM-1 β-lactamase [1]; [6],6.54 µM
same,Ki,TEM-1 β-lactamase [1]; [5],95 ± 8.7 µM
"O=C(Oc1c(Cl)cc(Cl)cc1[N+](=O)[O-])c1cc(B(O)O)cc([N+](=O)[O-])c1 [Compound (1w), 3-(2,4-Dichloro-6-nitro-phenoxycarbonyl)-5-nitro-phenylboronic acid]",ΔG,TEM-1 β-lactamase [4],-6.409 kcal/mol
same,ΔH,TEM-1 β-lactamase [4],-4.554 kcal/mol
same,−TΔS,TEM-1 β-lactamase [4],-1.855 kcal/mol
same,Ki,TEM-1 β-lactamase [1]; [5],13 ± 1.1 µM
same,Ki,"TEM-1 β-lactamase [1]; Ki, TEM-1 β-lactamase",12.7 µM
"O=C(Oc1c(Cl)cc(Cl)cc1Cl)c1cc(B(O)O)cc([N+](=O)[O-])c1 [Compound (1y), 3-(2,4,6-Trichlorophenoxycarbonyl)-5-nitro-phenylboronic acid]",ΔG,TEM-1 β-lactamase [4],-6.55 kcal/mol
same,ΔH,TEM-1 β-lactamase [4],0 kcal/mol
same,−TΔS,TEM-1 β-lactamase [4],-6.55 kcal/mol
same,Ki,"TEM-1 β-lactamase [1]; Ki, TEM-1 β-lactamase",15.8 µM
"O=C(Oc1ccc(OC(=O)c2cc(B(O)O)cc([N+](=O)[O-])c2)cc1)c1cc(B(O)O)cc([N+](=O)[O-])c1 [Compound (2a), 3-Borono-5-nitrobenzoic acid 1,4-phenylene ester]",ΔG,TEM-1 β-lactamase [4],-7.451 kcal/mol
same,ΔH,TEM-1 β-lactamase [4],0.274 kcal/mol
same,−TΔS,TEM-1 β-lactamase [4],-7.725 kcal/mol
same,Ki,TEM-1 β-lactamase [1]; [5],22.7 ± 1.3 µM
same,Ki,"TEM-1 β-lactamase [1]; Ki, TEM-1 β-lactamase",22.7 µM
"O=C(OCc1c(Cl)cccc1Cl)c1cc(B(O)O)cc([N+](=O)[O-])c1 [Compound (3a), 3-(2,6-Dichlorobenzyloxycarbonyl)-5-nitrophenylboronic]",Ki,TEM-1 β-lactamase [1]; [6],4.97 µM
same,Ki,TEM-1 β-lactamase [1]; [5],34 ± 2.9 µM
"O=C(OCc1cccc([N+](=O)[O-])c1)c1cc(B(O)O)cc([N+](=O)[O-])c1 [Compound (3b), 3-(3-Nitrobenzyloxycarbonyl)-5-nitrophenylboronic acid]",Ki,TEM-1 β-lactamase [1]; [6],2.76 µM
same,Ki,TEM-1 β-lactamase [1]; [5],27 ± 3.4 µM
"O=C(OCc1cccc(Cl)c1)c1cc(B(O)O)cc([N+](=O)[O-])c1 [Compound (3c), 3-(3-Chlorobenzyloxycarbonyl)-5-nitrophenylboronic acid]",Ki,TEM-1 β-lactamase [1]; [6],2.35 µM
same,Ki,TEM-1 β-lactamase [1]; [5],25 ± 1.5 µM
"O=C(OCc1cccc2ccccc12)c1cc(B(O)O)cc([N+](=O)[O-])c1 [Compound (3e), 3-(1-Naphthalenemethoxycarbonyl)-5-nitrophenylboronic acid]",ΔG,TEM-1 β-lactamase [4],-6.164 kcal/mol
same,ΔH,TEM-1 β-lactamase [4],0.224 kcal/mol
same,−TΔS,TEM-1 β-lactamase [4],-6.388 kcal/mol
same,Ki,"TEM-1 β-lactamase [1]; Ki, TEM-1 β-lactamase",17.1 µM
"Nc1cc(B(O)O)cc(C(=O)OCc2cccc(B(O)O)c2)c1 [Compound (3f), 3-(3-Boronobenzyloxycarbonyl)-5-aminophenylboronic acid]",ΔG,AmpC β-lactamase [2],-8.151 kcal/mol
same,ΔH,AmpC β-lactamase [2],-9.325 kcal/mol
same,−TΔS,AmpC β-lactamase [2],1.174 kcal/mol
same,Ki,AmpC β-lactamase [3],0.724 µM
"O=C(OCc1cccc(B(O)O)c1)c1cc(O)cc(B(O)O)c1 [Compound (3g), 3-(3-Boronobenzyloxycarbonyl)-5-hydroxylphenylboronic acid]",ΔG,AmpC β-lactamase [2],-7.356 kcal/mol
same,ΔH,AmpC β-lactamase [2],-3.677 kcal/mol
same,−TΔS,AmpC β-lactamase [2],-3.679 kcal/mol
same,Ki,AmpC β-lactamase [3],2.69 µM
"O=C(O)c1cc(NC(=O)c2ccccc2F)cc(B(O)O)c1 [Compound (4a), 3-(2-Fluorobenzamido)-5-carboxylphenylboronic acid]",Ki,TEM-1 β-lactamase [1]; [5],143 ± 9 µM
"Nc1cc(B(O)O)cc(C(=O)O)c1 [Compound (5a), 3–5-carboxylphenylboronic acid]",Ki,TEM-1 β-lactamase [1]; [5],727 ± 49 µM
"O=C(Oc1cccc(OC(=O)c2cc(B(O)O)cc([N+](=O)[O-])c2)c1)c1cc(B(O)O)cc([N+](=O)[O-])c1 [Compound (9a), 3-Borono-5-nitrobenzoic acid 1,3-phenylene ester]",ΔG,TEM-1 β-lactamase [4],-7.864 kcal/mol
same,ΔH,TEM-1 β-lactamase [4],0.446 kcal/mol
same,−TΔS,TEM-1 β-lactamase [4],-8.31 kcal/mol
same,Ki,TEM-1 β-lactamase [1]; [5],16 ± 1.5 µM
same,Ki,"TEM-1 β-lactamase [1]; Ki, TEM-1 β-lactamase",16.2 µM
"O=C(Oc1cccc(B(O)O)c1)c1ccc(C(=O)Oc2cccc(B(O)O)c2)cc1 [Compound (11a), 1,4-Benzenedicarboxylic Acid, di 3-boronophenyl ester]",ΔG,AmpC β-lactamase [2],-7.548 kcal/mol
same,ΔH,AmpC β-lactamase [2],-3.114 kcal/mol
same,−TΔS,AmpC β-lactamase [2],-4.434 kcal/mol
same,Ki,AmpC β-lactamase [3],1.31 µM
CCCCOC(=O)c1cccc(B(O)O)c1 [Compound BB-1003],Ki,TEM-1 β-lactamase [1]; [5],231 µM
CC(C)(C)OC(=O)Oc1cccc(B(O)O)c1 [Compound BB-1004],Ki,TEM-1 β-lactamase [1]; [5],297 µM
O=C(c1cccc(B(O)O)c1)N1CCCC1 [Compound BB-1005],Ki,TEM-1 β-lactamase [1]; [5],392 µM
O=C(OCc1ccccc1)c1ccc(B(O)O)cc1 [Compound F1002],Ki,TEM-1 β-lactamase [1]; [5],148 µM
OB(O)c1cccc2c1Sc1ccccc1S2 [Compound F1012],Ki,TEM-1 β-lactamase [1]; [5],113 µM
